Source: ChEMBL document CHEMBL4818999, “Pyrido[2, 3-d]pyrimidin-7(8H)-ones as new selective orally bioavailable Threonine Tyrosine Kinase (TTK) inhibitors” (Eur J Med Chem, 2021)

Key:
[1] = biological target: Phosphatidylinositol 4,5-bisphosphate 3-kinase catalytic subunit delta isoform (Homo sapiens, UniProt O00329); experiment: Binding affinity to wild-type human partial length PIK3CD (R108 to Q1044 residues) expressed in HEK293 cells by active site-directed competition binding based Kinomescan method; type: cell-based
NCI-H460 = experiment: Antiproliferative activity against human NCI-H460 cells assessed as growth inhibition after 96 hrs by CCK8 assay; type: functional, cell-based; conditions: NCI-H460, 96 h
[2] = biological target: T1, Death-associated protein kinase 3 (Homo sapiens, UniProt O43293); experiment: Binding affinity to wild-type human partial length DAPK3 (M1 to A277 residues) expressed in bacterial expression system by measuring active site-directed competition binding based Kinomescan method
Target sequence in this assay (O43293 whole entry, the tested form may be a part): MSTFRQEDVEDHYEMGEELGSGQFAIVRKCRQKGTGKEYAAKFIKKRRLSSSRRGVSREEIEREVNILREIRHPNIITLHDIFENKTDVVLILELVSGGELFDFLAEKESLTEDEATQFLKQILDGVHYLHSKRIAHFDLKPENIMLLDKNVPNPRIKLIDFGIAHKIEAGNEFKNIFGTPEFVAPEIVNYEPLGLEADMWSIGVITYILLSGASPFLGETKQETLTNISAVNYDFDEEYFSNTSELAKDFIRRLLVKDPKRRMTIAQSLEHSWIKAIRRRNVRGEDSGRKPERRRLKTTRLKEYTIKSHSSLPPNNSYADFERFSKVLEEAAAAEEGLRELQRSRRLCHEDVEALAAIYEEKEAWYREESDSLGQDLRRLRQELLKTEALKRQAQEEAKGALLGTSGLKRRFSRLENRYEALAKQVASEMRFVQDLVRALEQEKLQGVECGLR

HCT-116 [3] = experiment: Induction of apoptosis in human HCT-116 cells assessed as late apoptotic cells at 111.1 nM incubated for 48 hrs by annexin V and 7-AAD staining based flow cytometry analysis (reference value: 8.59 %); type: functional
A549 = experiment: Antiproliferative activity against human A549 cells assessed as growth inhibition after 96 hrs by CCK8 assay; type: functional, cell-based; conditions: A549, 96 h
[4] = biological target: Mitogen-activated protein kinase 8 (Homo sapiens) (UniProt P45983); conditions: dose 100.0 nM
Description: Inhibition of human full length JNK-1 using ATF2 as substrate at 100 nM direct filter-binding radiometric kinase activity assay relative to control

[5] = biological target: Serine/threonine-protein kinase ULK1 (Homo sapiens) (UniProt O75385); conditions: dose 100.0 nM
Description: Inhibition of human recombinat ULK1 (1 to 314) using casein as substrate at 100 nM direct filter-binding radiometric kinase activity assay relative to control

[6] = AUC (0 to infinity) in Sprague-Dawley rat at 25 mg/kg, po; type: ADME, organism-based; parameters: time infinity, route oral, dose 25 mg/kg; conditions: in vivo
[7] = Cmax in Sprague-Dawley rat at 25 mg/kg, po; type: ADME, organism-based; parameters: route oral, dose 25 mg/kg; conditions: in vivo
HCT-116 [8] = experiment: Induction of apoptosis in human HCT-116 cells assessed as early apoptotic cells at 1000 nM incubated for 48 hrs by annexin V and 7-AAD staining based flow cytometry analysis (reference value: 8.12 %); type: functional
[9] = biological target: Serine/threonine-protein kinase DCLK1 (Homo sapiens) (UniProt O15075); conditions: dose 100.0 nM
Description: Inhibition of human DCAMKL1 at 100 nM by direct-filter Binding radiometric assay relative to control

[10] = biological target: Dual specificity protein kinase TTK (Homo sapiens) (UniProt P33981); conditions: dose 100.0 nM, time 40.0 min
[11] = biological target: Phosphatidylinositol 3-kinase C2 domain-containing subunit gamma (Homo sapiens, UniProt O75747); experiment: Binding affinity to human partial length PIK3C2G (M1 to I1446 residues) expressed in mammalian expression system by active site-directed competition binding based Kinomescan method
[12] = Cmax in Sprague-Dawley rat at 5 mg/kg, iv; type: ADME, organism-based; parameters: route intravenous, dose 5 mg/kg; conditions: in vivo
HCT-116 [13] = experiment: Induction of apoptosis in human HCT-116 cells assessed as necrotic cells at 111.1 nM incubated for 48 hrs by annexin V and 7-AAD staining based flow cytometry analysis (reference value: 1.20 %); type: functional
[14] = biological target: Phosphatidylinositol 4,5-bisphosphate 3-kinase catalytic subunit delta isoform (Homo sapiens) (UniProt O00329); conditions: dose 100.0 nM
Description: Inhibition of human PIK3CD at 100 nM by scintillation counting based direct-filter Binding radiometric assay relative to control

[15] = biological target: Death-associated protein kinase 2 (Homo sapiens) (UniProt Q9UIK4); conditions: dose 100.0 nM
Description: Inhibition of human recombinant full length DAPK2 using Calmodulin as substrate at 100 nM direct filter-binding radiometric kinase activity assay relative to control

[16] = biological target: Serine/threonine-protein kinase ULK2 (Homo sapiens) (UniProt Q8IYT8); conditions: dose 100.0 nM
Description: Inhibition of human recombinant ULK2 (1 to 306) using casein at 100 nM direct filter-binding radiometric kinase activity assay relative to control

[17] = Oral bioavailability in Sprague-Dawley rat at 25 mg/kg; type: ADME, organism-based; conditions: in vivo
Homo sapiens = species: Homo sapiens; conditions: dose 100.0 nM
Description: Inhibition of PIPK5 (unknown origin) at 100 nM direct filter-binding radiometric kinase activity assay relative to control

[18] = Toxicity in CB17-SCID mouse xenografted with human HCT-116 cells xenografted assessed as liver damage at 50 mg/kg, po administered once daily relative to control; type: organism-based; conditions: in vivo
[19] = biological target: Interleukin-1 receptor-associated kinase 1 (Homo sapiens, UniProt P51617); experiment: Binding affinity to wild-type human partial length IRAK1 (R194 to S712 residues) expressed in mammalian expression system by active site-directed competition binding based Kinomescan method
[20] = AUC (0 to infinity) in Sprague-Dawley rat at 5 mg/kg, iv; type: ADME, organism-based; parameters: route intravenous, time infinity, dose 5 mg/kg; conditions: in vivo
HCT-116 [21] = experiment: Antitumor activity at human HCT-116 cells xenografted in CB17-SCID mouse assessed as tumor growth inhibition at 50 mg/kg, po administered once daily for 16 days in combination with paclitaxel at 20 mg/kg, ip once weekly relative to control; type: functional; conditions: HCT-116, 384 h, time 16 day, read-out: TGI
[22] = biological target: T2, Dual specificity protein kinase TTK (Homo sapiens, UniProt P33981); experiment: Inhibition of recombinant full-length human TTK using MBP as substrate incubated for 40 mins in presence of [gamma33P]ATP by scintillation counting based radiometry assay relative to control
T2 sequence (P33981 whole entry): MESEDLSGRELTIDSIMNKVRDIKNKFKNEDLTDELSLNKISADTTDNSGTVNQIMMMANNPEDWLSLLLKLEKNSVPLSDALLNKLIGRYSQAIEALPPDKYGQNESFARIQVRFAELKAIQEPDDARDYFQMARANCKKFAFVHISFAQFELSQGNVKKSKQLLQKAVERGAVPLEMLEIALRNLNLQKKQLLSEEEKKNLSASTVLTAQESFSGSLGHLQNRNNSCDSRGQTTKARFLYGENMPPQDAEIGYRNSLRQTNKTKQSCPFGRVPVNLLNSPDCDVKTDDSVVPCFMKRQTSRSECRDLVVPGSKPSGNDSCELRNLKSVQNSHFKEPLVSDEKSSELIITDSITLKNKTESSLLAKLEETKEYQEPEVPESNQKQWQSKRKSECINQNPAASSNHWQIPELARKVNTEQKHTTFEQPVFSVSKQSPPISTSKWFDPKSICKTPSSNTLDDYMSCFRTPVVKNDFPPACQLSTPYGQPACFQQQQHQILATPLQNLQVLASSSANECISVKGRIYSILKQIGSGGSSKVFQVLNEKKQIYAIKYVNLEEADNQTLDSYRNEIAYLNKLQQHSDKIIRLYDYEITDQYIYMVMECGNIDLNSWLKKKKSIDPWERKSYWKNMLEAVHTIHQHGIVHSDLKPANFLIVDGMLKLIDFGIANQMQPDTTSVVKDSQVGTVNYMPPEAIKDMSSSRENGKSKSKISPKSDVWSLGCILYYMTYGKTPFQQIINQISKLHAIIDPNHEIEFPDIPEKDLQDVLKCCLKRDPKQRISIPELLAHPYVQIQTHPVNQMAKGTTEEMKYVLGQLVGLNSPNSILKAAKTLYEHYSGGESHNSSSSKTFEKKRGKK

HCT-116 [23] = experiment: Antiproliferative activity against human HCT-116 cells assessed as growth inhibition after 96 hrs by CCK8 assay; type: functional, cell-based; conditions: HCT-116, 96 h
[24] = biological target: Maternal embryonic leucine zipper kinase (Homo sapiens) (UniProt Q14680); conditions: dose 100.0 nM
[25] = biological target: T1, Death-associated protein kinase 3; conditions: dose 100.0 nM
Target sequence in this assay (O43293 whole entry, looked up, the tested form may be a part): as the sequence (O43293 whole entry, the tested form may be a part) above
Description: Inhibition of human DAPK3 at 100 nM by direct-filter Binding radiometric assay relative to control

[26] = biological target: NUAK family SNF1-like kinase 2 (Homo sapiens) (UniProt Q9H093); conditions: dose 100.0 nM
Chain of NUAK family SNF1-like kinase 2 (Homo sapiens) (Q9H093 whole entry): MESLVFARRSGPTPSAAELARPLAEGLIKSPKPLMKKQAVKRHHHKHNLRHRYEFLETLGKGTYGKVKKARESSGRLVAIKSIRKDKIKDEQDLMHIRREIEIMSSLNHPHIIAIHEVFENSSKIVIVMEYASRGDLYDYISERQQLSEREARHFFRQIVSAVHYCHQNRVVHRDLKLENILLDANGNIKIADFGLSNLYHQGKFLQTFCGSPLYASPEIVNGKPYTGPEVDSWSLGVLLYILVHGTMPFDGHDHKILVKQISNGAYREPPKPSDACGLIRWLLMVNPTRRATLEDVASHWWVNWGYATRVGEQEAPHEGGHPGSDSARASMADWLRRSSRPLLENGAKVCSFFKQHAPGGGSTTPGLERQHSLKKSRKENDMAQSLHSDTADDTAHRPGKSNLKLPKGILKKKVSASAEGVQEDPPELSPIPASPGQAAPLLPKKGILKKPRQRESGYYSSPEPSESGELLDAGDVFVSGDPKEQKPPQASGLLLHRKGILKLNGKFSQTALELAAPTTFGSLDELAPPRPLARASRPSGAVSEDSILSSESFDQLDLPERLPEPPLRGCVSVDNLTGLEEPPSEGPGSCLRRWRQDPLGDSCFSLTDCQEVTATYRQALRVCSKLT

Chain of Serine/threonine-protein kinase ULK1 (Homo sapiens) (O75385 whole entry): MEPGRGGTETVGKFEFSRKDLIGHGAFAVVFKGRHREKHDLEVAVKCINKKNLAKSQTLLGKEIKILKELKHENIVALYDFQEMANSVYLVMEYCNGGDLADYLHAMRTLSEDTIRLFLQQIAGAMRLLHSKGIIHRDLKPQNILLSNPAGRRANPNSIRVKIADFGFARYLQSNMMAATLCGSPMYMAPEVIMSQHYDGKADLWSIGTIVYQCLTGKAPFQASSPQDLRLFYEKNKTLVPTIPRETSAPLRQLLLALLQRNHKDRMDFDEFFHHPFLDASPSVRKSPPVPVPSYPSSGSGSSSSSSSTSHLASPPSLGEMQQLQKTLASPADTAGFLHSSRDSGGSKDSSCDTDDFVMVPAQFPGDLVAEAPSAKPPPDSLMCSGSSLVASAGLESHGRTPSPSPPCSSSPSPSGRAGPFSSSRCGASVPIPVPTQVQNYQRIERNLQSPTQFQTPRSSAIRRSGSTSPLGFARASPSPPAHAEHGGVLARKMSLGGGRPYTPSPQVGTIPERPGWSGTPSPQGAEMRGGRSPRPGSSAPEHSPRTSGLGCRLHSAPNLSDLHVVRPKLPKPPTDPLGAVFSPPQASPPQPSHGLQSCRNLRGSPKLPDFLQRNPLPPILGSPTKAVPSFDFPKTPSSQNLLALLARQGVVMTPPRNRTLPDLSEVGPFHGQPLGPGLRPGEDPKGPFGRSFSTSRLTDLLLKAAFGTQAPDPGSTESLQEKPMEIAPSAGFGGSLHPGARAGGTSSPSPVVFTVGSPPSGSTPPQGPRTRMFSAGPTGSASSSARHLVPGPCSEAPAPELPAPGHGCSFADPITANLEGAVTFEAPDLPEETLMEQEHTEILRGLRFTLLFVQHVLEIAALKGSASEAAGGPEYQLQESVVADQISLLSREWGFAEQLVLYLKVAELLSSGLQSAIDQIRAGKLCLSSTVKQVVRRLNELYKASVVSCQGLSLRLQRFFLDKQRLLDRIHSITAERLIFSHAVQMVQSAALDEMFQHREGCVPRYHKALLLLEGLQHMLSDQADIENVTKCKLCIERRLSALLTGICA
Chain of Serine/threonine-protein kinase ULK2 (Homo sapiens) (Q8IYT8 whole entry): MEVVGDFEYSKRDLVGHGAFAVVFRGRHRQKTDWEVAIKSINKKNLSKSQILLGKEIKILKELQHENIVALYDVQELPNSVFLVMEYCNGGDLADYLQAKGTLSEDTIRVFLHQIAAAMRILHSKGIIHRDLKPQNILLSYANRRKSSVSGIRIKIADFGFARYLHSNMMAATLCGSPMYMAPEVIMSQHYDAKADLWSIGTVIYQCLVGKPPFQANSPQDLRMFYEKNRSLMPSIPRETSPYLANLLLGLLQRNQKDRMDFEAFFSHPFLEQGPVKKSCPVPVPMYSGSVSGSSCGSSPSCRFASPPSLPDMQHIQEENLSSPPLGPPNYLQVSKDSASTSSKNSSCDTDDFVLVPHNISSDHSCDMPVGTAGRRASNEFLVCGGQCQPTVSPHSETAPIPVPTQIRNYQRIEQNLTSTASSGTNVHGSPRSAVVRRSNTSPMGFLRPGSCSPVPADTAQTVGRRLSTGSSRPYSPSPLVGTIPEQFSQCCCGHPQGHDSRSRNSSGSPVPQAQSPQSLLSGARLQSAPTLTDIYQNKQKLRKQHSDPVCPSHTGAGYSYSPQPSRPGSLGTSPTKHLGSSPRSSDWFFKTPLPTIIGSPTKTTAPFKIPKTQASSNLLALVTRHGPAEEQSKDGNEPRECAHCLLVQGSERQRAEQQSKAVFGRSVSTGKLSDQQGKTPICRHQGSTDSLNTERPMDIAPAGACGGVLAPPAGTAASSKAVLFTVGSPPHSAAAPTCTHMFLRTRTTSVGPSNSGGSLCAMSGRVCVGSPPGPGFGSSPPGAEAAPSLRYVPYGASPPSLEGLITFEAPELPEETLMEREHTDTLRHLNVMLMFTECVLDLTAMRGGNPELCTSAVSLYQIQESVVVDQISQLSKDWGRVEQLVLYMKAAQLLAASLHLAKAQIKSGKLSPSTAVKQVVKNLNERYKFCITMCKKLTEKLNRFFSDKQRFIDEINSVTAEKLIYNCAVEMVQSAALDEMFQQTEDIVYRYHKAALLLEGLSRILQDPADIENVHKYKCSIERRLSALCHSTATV
Chain of Death-associated protein kinase 2 (Homo sapiens) (Q9UIK4 whole entry, looked up): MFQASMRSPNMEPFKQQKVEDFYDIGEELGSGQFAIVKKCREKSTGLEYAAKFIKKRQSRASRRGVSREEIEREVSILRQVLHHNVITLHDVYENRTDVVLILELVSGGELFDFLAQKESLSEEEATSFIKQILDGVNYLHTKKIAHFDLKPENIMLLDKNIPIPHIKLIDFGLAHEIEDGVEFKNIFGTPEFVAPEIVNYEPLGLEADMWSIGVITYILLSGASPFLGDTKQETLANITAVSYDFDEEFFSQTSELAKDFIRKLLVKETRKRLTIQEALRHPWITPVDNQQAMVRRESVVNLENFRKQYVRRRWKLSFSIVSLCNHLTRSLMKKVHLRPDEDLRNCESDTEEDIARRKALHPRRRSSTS
Chain of Serine/threonine-protein kinase DCLK1 (Homo sapiens) (O15075 whole entry): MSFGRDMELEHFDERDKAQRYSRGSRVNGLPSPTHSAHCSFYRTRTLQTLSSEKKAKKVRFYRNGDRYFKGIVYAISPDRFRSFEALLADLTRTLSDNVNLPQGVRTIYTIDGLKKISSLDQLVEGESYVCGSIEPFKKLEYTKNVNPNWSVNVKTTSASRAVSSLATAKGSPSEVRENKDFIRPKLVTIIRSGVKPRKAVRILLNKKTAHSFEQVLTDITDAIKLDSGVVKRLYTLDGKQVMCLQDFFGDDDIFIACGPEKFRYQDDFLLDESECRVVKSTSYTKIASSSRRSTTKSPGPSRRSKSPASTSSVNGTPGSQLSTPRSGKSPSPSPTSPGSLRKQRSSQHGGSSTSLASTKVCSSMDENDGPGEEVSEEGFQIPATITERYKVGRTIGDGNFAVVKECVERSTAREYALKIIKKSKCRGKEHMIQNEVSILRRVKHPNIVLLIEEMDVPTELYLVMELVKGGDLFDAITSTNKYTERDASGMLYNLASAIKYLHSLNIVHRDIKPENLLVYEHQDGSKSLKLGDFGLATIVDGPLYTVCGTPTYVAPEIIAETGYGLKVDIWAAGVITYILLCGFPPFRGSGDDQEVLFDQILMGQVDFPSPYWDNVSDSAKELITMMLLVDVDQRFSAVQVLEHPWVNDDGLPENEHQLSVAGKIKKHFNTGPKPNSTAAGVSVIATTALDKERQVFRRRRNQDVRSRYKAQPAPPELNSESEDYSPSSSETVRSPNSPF
Chain of Maternal embryonic leucine zipper kinase (Homo sapiens) (Q14680 whole entry, looked up): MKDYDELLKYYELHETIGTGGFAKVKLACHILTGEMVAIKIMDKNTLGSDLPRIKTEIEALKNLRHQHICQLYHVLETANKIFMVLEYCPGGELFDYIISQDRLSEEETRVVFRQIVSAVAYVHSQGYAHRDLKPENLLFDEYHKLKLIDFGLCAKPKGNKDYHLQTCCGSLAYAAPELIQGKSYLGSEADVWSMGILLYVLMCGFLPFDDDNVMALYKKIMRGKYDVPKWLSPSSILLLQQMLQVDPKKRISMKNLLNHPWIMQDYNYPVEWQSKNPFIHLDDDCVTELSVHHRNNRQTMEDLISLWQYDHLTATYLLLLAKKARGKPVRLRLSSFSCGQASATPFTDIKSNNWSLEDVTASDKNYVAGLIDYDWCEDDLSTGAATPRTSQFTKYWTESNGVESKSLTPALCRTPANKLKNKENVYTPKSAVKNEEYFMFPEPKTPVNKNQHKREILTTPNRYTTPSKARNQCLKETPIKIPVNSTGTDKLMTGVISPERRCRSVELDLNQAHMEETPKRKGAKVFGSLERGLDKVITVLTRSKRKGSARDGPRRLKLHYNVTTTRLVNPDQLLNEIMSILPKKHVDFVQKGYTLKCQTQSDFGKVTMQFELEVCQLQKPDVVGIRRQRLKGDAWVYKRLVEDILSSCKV

- Kd [1]: > 1000 nM
- IC50 (NCI-H460): 1090 nM
- IC50 (A549): 4400 nM
- inhibition [4]: 75%
- inhibition [5]: 68%
- AUC(0-inf) [6]: 13000 ng·h/mL
- Cmax [7]: 1230 ng/mL
- inhibition [9]: 80%
- inhibition [10]: 98.1%
- Kd [11]: > 1000 nM
- Cmax [12]: 2530 ng/mL
- inhibition [14]: 100%
- inhibition [16]: 85%
- bioavailability [17]: 45.2%
- inhibition (Homo sapiens): 77%
- Kd [19]: > 1000 nM
- AUC(0-inf) [20]: 5310 ng·h/mL
- IC50 [22]: 23 nM
- IC50 (HCT-116 [23]): 410 nM
- inhibition [24]: 77%
- inhibition [26]: 84%
Compound: COc1cc(N2CCN(C)CC2)ccc1Nc1ncc2c(C)cc(=O)n([C@H]3CC[C@@H](NC(=O)C4CCCCC4)CC3)c2n1
- Kd [2]: 13 nM
- Activity (HCT-116 [3]): 5.3%
- Activity (HCT-116 [8]): 18.81%
- Activity (HCT-116 [13]): 0.75%
- inhibition [15]: 65%
- Activity [18]: Non-Toxic
- inhibition in vivo at 50 mg/kg (HCT-116 [21]): 78%
- inhibition [25]: 94.5%
